From US11685710B2, “Cationic sulfonamide amino lipids and amphiphilic zwitterionic amino lipids” (The Board of Regents of the University of Texas System, priority 2016, dated 2023)
Entries after “also recorded” stand apart in the source; their conditions may differ.

What was measured:
Assay type in all cases: cell-based
[1] = tested on: HeLa-Luc-Cas9 cells; IGROV1 cells; test: Delivery efficacy of ZA3-Ep10 versus cationic structural analogue (siLuc, sgLuc, Luc mRNA); conditions: siRNA, sgRNA and mRNA cargos; 7.5:1 weight ratio
Method: The ZNP or LNP formulation was fixed at 7.5:1 weight ratio ZAL or Cationic analogue to RNA. The lipid mixture for the NPs was 50:38.5:0.5 ZAL or cationic analogue: cholesterol: PEG-lipid, while for the A3-Ep14 NPs the zwitterionic phospholipid was titrated from 0 to 50% in the lipid mix. The nanoparticles were formulated by manual mixing using the in vitro formulation protocol. RNA binding was determined by the Ribogreen assay (N=3+/−standard deviation), while nanoparticle size was determined by dynamic light scattering (N=3+/−standard deviation). Luciferase silencing or editing of siLuc and sgLuc NPs was assayed in HeLa-Luc-Cas9 cells (7.35 nM sgRNA, 17.9 nM siRNA), while luciferase expression by Luc mRNA NPs was evaluated in IGROV1 cells (0.77 nM mRNA). Cells were assays after 40 h incubation time by the One-Glo+Tox assay and plotted with viability (dots) and luciferase expression (bars) as mean+/−standard deviation (N=4).

HeLa-Luc-Cas9 cells [2] = test: Kinetic assay of sgRNA and siRNA delivery (luciferase expression over time)
Method: The kinetics of luciferase expression after silencing/editing by siRNA and sgRNA were determined in HeLa-Luc-Cas9 cells. For time points <48 h, ZNPs encapsulating sgRNA or siRNA were delivered to HeLa-Luc-Cas9 cells in 96-well plates at a density of 5K cells per well. After 0.5, 1, 2, 4, 11, 20, 30 and 44 h time point, the cell viability and luciferase expression were determined by the One-Glow+Tox assay. For longer time points, cells were treated in 6-well plates. Beginning at the 2 day time point, cells were aspirated, washed with 1×PBS, trypsinized in 200 μL trypsin and re-suspended in 1800 μL medium. 1 mL of each cell suspension was added to a fresh 6-well plate containing 1 mL DMEM (2 mL total) and returned to the incubator. Of the remaining cell suspension, 50 μL was transferred to a 96-well white-opaque plate (10 wells per sample). Cell viability was determined using the Cell-Titer Glo assay normalized to untreated cells, while relative luciferase expression was determined using the One-Glo assay and normalized against control (siCtrl or sgCtrl). Data was plotted as an average of 5 measurements+/−standard deviation.

HeLa-Luc-Cas9 cells [3] = test: sgRNA delivery to HeLa-Luc-Cas9 cells (luciferase editing, ONE-Glo+Tox)
Method: sgRNA delivery to HeLa-Luc-Cas9 cells: Select ZALs were evaluated in the delivery of single guide RNA (sgRNA) to HeLa-Luc-Cas9 cells. In a white opaque 96-well plate tissue culture plate, HeLa-Luc-Cas9 cells were seeded at a density of 5×10^3 cells per well in 100 μL growth medium (DMEM without phenol red, 5% FBS), and allowed to attach overnight and then supplemented with an additional 100 μL DMEM. ZALs-sgRNA nanoparticles were formulated using the in vitro nanoparticle formulation protocol at the indicated lipid composition and weight ratio (maintaining 50:38.5 ZAL:cholesterol mole ratio, tuningPEG-lipid additive from 5% to 0.5%, and tuning weight ratio from 20:1 ZAL:sgRNA to 5:1 ZAL:sgRNA). Luciferase deletion was evaluated using a single guide RNA designed against luciferase using the CRISPR.mit.edu algorithm, while non-targeting control sgRNA (sgScr) was used as a negative control. The nanoparticles were added to the cells at a dose of 50 ng sgRNA per well and incubated with the cells for 24 h or 48 h. RNAiMax (Invitrogen) formulated according to the manufacturer's protocol with sgLuc or sgScr was used as a positive control. After 24 h or 48 h, the cell viability and luciferase expression were evaluated with the ONE-Glo+Tox Assay cell viability and luciferase assay (Promega).
Select ZALs were evaluated in the delivery of single guide RNA (sgRNA) to HeLa-Luc-Cas9 cells. In a white opaque 96-well plate tissue culture plate, HeLa-Luc-Cas9 cells were seeded at a density of 5×10^3 cells per well in 100 μL growth medium (DMEM without phenol red, 5% FBS), and allowed to attach overnight and then supplemented with an additional 100 μL DMEM. ZNPs encapsulating sgRNA were formulated using the in vitro nanoparticle formulation protocol at the indicated lipid composition and weight ratio (maintaining 50:38.5 (ZAL:cholesterol mole ratio), tuning PEG-lipid additive from 5% to 0.5%, and tuning weight ratio from 20:1 ZAL:sgRNA to 5:1 ZAL:sgRNA). Non-targeting control sgRNA (sgCtrl) was used as a negative control. The nanoparticles were added to the cells at the appropriate dose of sgRNA and incubated with the cells for 48 h. The cell viability and luciferase expression were evaluated with the ONE-Glo+Tox Assay (Promega), normalized to untreated cells (N=4+/−standard deviation).

[4] = PEG 2%, 1%, 0.5%, ZAL:sgRNA 20:1, 10:1, 7.5:1, 5:1, 7.4 nM, 48 h

CCCCCCCCC(O)CN(CCC(=O)NCC[N+](C)(C)CCCS(=O)(=O)[O-])CCN(CCN(CC(O)CCCCCCCC)CC(O)CCCCCCCC)CCN(CC(O)CCCCCCCC)CC(O)CCCCCCCC (stereo not shown) [ZA3-Ep10]
efficacy compared with cationic analogue [1]: outperformed the cationic analogue supplemented with phospholipid | decrease of luciferase expression (HeLa-Luc-Cas9 cells [2]; sgLuc, 20 h): 40% | decrease of luciferase expression (HeLa-Luc-Cas9 cells [2]; sgLuc, after 2 days): 95% | remaining luciferase expression (HeLa-Luc-Cas9 cells [2]; sgLuc, persisted throughout the assay (9 days)): 5% | time luciferase remained low (HeLa-Luc-Cas9 cells [2]; siLuc): about 3 days | time until protein expression reached baseline level (HeLa-Luc-Cas9 cells [2]; siLuc, after transfection): 6 days | luciferase silenced (HeLa-Luc-Cas9 cells [2]; siLuc, by 20 h): 92% | decrease of luciferase expression (HeLa-Luc-Cas9 cells [2]; siLuc, within the first 4 h): 40% | formulation with the best luciferase editing (HeLa-Luc-Cas9 cells [3]; [4]): 7.5:1 weight ratio and 0.5% PEG | sgLuc delivery by formulations with tuned PEG content and weight ratio (HeLa-Luc-Cas9 cells [3]; [4]): potent | sgRNA (sgLuc) delivery, rank among lead ZALs (HeLa-Luc-Cas9 cells [3]; lead ZALs from the siRNA screen, HeLa-Luc-Cas9 cells, 48 h): most highly potent; also recorded: efficacious | luciferase expression versus sgRNA dose (HeLa-Luc-Cas9 cells [3]; sgLuc ZNPs, HeLa-Luc-Cas9 cells): dose-dependent decrease | luciferase silencing (HeLa-Luc-Cas9 cells [3]; sgRNA at 14.7 nM and 7.4 nM, 48 h, ZNPs 50:38.5:1 ZAL:cholesterol:PEG-lipid, 20:1 ZAL:sgRNA weight ratio): > 95%
